Structures are written as SMILES. Where a name gives a salt, the structure may show the parent alone.

The subject of series [1] is sham (water) injected oocytes. In words: Application of Orco antagonists to sham (water) injected oocytes. The series is classed as cell-based, Xenopus laevis. As to conditions: 3 mM. As for the experimental part:
To measure antagonist activity at Orco, Agam\Orco was activated by the Orco agonist OLC12[34]. Following two successive 60 sec applications of 30 μM OLC12, with 5 min washes between applications, each antagonist candidate was applied for 90 sec, immediately followed by a 60 sec co-application of antagonist candidate and OLC12. The 90 sec application of each compound alone (prior to co-application of the compound and OLC12) allowed us to ensure that antagonist candidate compounds were not causing non-specific effects on the oocytes that might confound the results. The current response to OLC12 in the presence of antagonist candidate was compared to the mean of the preceding two responses to OLC12 alone and presented as a percentage[34],[35]. This value was then normalized to the value obtained when the assay was run in the absence of antagonist candidate (sham).
Figure S2. Applic a tion of Orco antagonists to s ha m (wa ter) injected oocytes.
Up p e r tra ce, current recording from a sham (water) injected oocyte that was challenged with 60 sec applications of 100 µM an d 1 mM 3-isopropyl-6-methyl-ca t e ch o l (3 I6MC). Representative of recordings from 4 oocytes. Lo we r trace, current recording from a sham (water) injected oocyte that was challenged with 60 sec applications of 3 mM 2-tert-butyl-6-methylphenol (BMP) and linalyl formate (LF). Representative of recordings […]

In series [2] the test system is fruit fly antennae. In words: Electroantennogram (EAG) recordings in adult flies. It counts as in vivo, Drosophila melanogaster. As to conditions: for amplitude of EAG responses to EA and 2 H: adult flies. The text has this:
Adult flies (w1118 strain, 3–5 days old) were mounted in truncated pipette tips for detection of antennal responses[69],[70]. EAG data were obtained with an IDAC-232 (Syntech), which was linked to a computer via the EAGpro data acquisition interface. SSR data were acquired with an IDAC 4 and AutoSpike (Syntech). Recording and indifferent electrodes were made of silver/silver chloride wires enclosed in glass capillary needles, which were pulled with a Micropipette Puller (P-97, Sutter Instruments Co.) and filled with 1 M potassium chloride in 1% polyvinylpyrrolidone. The indifferent electrode was inserted in the eye of an immobilized fly, while the EAG recording electrode was placed on the third segment of the antenna under a S2X12 Olympus microscope and by using a micromanipulator MP-12 (Syntech). For SSR, the recording electrode was inserted into a desired sensillum under a stage microscope (BX51WI, Olympus) and using a Piezo Manipulator (PM10, World Precision Instrument). The stimulus delivery system consisted of a Stimulus Controller CS-55 (Syntech), which delivered charcoal-filtered, humidified air at 650 mL/min through a stimulus tube (5 cm long; internal diameter, 8 mm). The outlet of the stimulus delivery tube was set 1 cm away from the preparations. Stimulus pulses (0.5 sec) were introduced through a hole in the stimulus delivery tube 2.5 cm away from outlet. A compensatory flow was applied through another hole in the tube (directly across from the stimulus pulse hole). The total flow (continuous plus compensatory or continuous plus stimulus) of 0.6 mL/s was measured at the center of the outlet of the stimulus delivery tube with an Anemometer Lite (Model 6006, Kanomax, Osaka, Japan). 10 µL of the odorants EA and 2 H (freshly diluted to 0.01%, 0.1% or 1% in mineral oil) or the Orco antagonist compounds BMP and LF (freshly diluted to 1% or 50% in mineral oil) were loaded onto filter papers (1 cm^2). The filter papers containing odorants were placed inside of stimulus cartridges. Loading of odorant containing filter papers into the cartridges occurred in ambient air, which could contain trace amounts of odorants. Thus, stimulus pulses with ambient air (filter papers containing mineral oil alone) in the cartridges were used to define a baseline response. For EAG, filter papers containing BMP or LF (50% in mineral oil) were placed inside the main airflow tube 8 cm away from the antenna and odorants were delivered through a hole 2.5 cm away from the outlet. For SSR, BMP (1% in mineral oil) was delivered into the holes 2.5 cm away from the outlet, whereas the odorants were delivered upstream through a hole 4 cm away from the outlet. The different delivery arrangements may contribute to the difference in apparent BMP potency in the EAG and SSR experiments (Figs 6 and 7). Each filter paper was used 3–5 times before being replaced. CO2 was freshly collected into stimulus cartridge from the breath of the same subject (P.X.) and used only once. Spikes were manually counted 0.5 s before and 0.5 s after stimulus and the results presented as poststimulus number of spikes per 0.5 s (number of spikes after stimulus minus number of spikes prior to stimulus). Data were analyzed with One Way ANOVA using Prism 7 (GraphPad).

For series [3], the system named is D. melanogaster larvae. The experiment in a line: Larval chemotaxis assay (attraction to ethyl acetate). It counts as in vivo, Drosophila melanogaster. As to conditions: for larval preference, compound alone vs. mineral oil vehicle: 10 µL of 100 mM on plate filter. Here is the method:
We have previously provided a detailed description of these methods. Briefly, Canton-S (CS) flies were used as wild type (wt). The experimental chamber was a 100 × 15 mm polystyrene Petri dish (VWR) with 20 mL of 1.1% agarose coating the bottom. In this assay, 50 third-instar larvae were placed inside a “starting circle” at the center of the plate (the circle was drawn on the outside bottom of the plate). A line was also drawn that divided the plate in half. Small filter paper discs (d = 6 mm, Whatman Cellulose Filter Paper, # 1030 023) were placed on opposite sides of the plate (see Fig. 8A). Onto each filter paper disc was placed 10 μL of solution, containing either vehicle of dilution (mineral oil), odorant attractant (EA, diluted in mineral oil) or an Orco antagonist compound (diluted in mineral oil). The sides of the plate on which the compounds or vehicle were placed were alternated from experiment to experiment.
In order to test Orco antagonists for the ability to affect the chemotaxis assay, a large (d = 9 cm) filter paper (Whatman Filter Paper # D00161-S) was adhered with double-sided tape to the inside of the Petri dish lid. This allowed the larvae to be exposed to Orco antagonists in an airborne context. For light repulsion experiments, we used a Zeiss CL6000 LED light source at 76% intensity. Following the 5 min migratory period, plates were photographed, coded and then blind counted. Any larvae still within the starting circle or touching the center line were excluded from the analysis. A Response Index (RI) was calculated as RI = (S − C)/(S + C), where S is the number of larvae on the stimulus (EA) side and C is the number of larvae on the control (mineral oil) side. RI = 1 would indicate complete attraction, RI = −1 would indicate complete repulsion, and RI = 0 would indicate no preference. Statistical significance was assessed using a one-way analysis of the variance followed by Dunnett’s’s post-test.

For series [4], the system named is ab2 sensilla (EA responsive OSN). The experiment in a line: Single sensillum recording (SSR), ab2 sensilla, ethyl acetate response. The series is classed as in vivo, Drosophila melanogaster. The text has this:
(§1) Adult flies (w1118 strain, 3–5 days old) were mounted in truncated pipette tips for detection of antennal responses[69],[70]. EAG data were obtained with an IDAC-232 (Syntech), which was linked to a computer via the EAGpro data acquisition interface. SSR data were acquired with an IDAC 4 and AutoSpike (Syntech). Recording and indifferent electrodes were made of silver/silver chloride wires enclosed in glass capillary needles, which were pulled with a Micropipette Puller (P-97, Sutter Instruments Co.) and filled with 1 M potassium chloride in 1% polyvinylpyrrolidone. The indifferent electrode was inserted in the eye of an immobilized fly, while the EAG recording electrode was placed on the third segment of the antenna under a S2X12 Olympus microscope and by using a micromanipulator MP-12 (Syntech). […] The total flow (continuous plus compensatory or continuous plus stimulus) of 0.6 mL/s was measured at the center of the outlet of the stimulus delivery tube with an Anemometer Lite (Model 6006, Kanomax, Osaka, Japan). […] Spikes were manually counted 0.5 s before and 0.5 s after stimulus and the results presented as poststimulus number of spikes per 0.5 s (number of spikes after stimulus minus number of spikes prior to stimulus). Data were analyzed with One Way ANOVA using Prism 7 (GraphPad).

The test system of series [5] is ab1 sensilla (CO2 responsive OSN, Gr21 and Gr63a). The experiment in a line: Single sensillum recording (SSR), ab1 sensilla, CO2 response. It counts as in vivo, Drosophila melanogaster. As to conditions: 10 µL of 1% compound in mineral oil.
Source text: as §1

Where [6] appears, read: 10 µL of 50% compound in mineral oil in main airflow.

On to `C=CC(C)(CCC=C(C)C)OC=O` (centres unmarked) [LF, linalyl formate], for which the “non-specific effects on sham (water) injected oocytes” value in series [1] was “Neither BMP or LF exerted any non-specific effects”. Further, the “amplitude of EAG responses to EA and 2 H” value in series [2] (setting [6]) is given as “did not alter the amplitude”. The “larval attraction to EA with airborne compound” value (shortened to “larval attraction to EA”) in series [3] (30 mM on lid filter) is given as “significantly reduce larval attraction to EA”; in series [3] (685 µL of 100 mM on lid filter) it was “completely abolished larval attraction to EA”. In series [3], the “larval preference, compound alone vs. mineral oil vehicle” value is “displayed no preference”.
For the compound `Cc1cccc(C(C)(C)C)c1O` [BMP, 2-tert-butyl-6-methylphenol], in series [4] (10 µL of 1% compound in mineral oil, 0.1% EA), the “SSR response of ab2 sensilla to EA” value is “abolished the response”. Also, the “reversibility of effect on ab2 EA response” value in series [4] (subsequent response to EA alone) was “reversible”. In addition, the “non-specific effects on sham (water) injected oocytes” value in series [1] is “Neither BMP or LF exerted any non-specific effects”. In series [2] (setting [6]), the “baseline EAG response to ambient air” value is “significantly reduced the baseline response”; the “amplitude of EAG responses to EA and 2 H” value was “significantly reduced the amplitude”. Further, in series [2] (50% BMP in main airflow, n = 3), the “extent of inhibition of EAG responses across 0.01%, 0.1%, 1% 2H” value is on record as “did not differ” and the “extent of inhibition of EAG responses across 0.01%, 0.1%, 1% EA” value was “did not differ”. The “odorant agonist activity in EAG” value in series [2] (compound alone) is recorded as “did not act as an odorant agonist”. In series [3] (30 mM on lid filter), the “larval attraction to EA” value is “did not significantly affect attraction to EA”. The “larval preference, compound alone vs. mineral oil vehicle” value in series [3] is recorded as “displayed no preference”. The “larval attraction to EA” value in series [3] (685 µL of 100 mM on lid filter) is on record as “completely abolished larval attraction to EA”. The “SSR response of ab1 sensilla to CO2” value in series [5] was “had no effect on the CO2 response”.

The values above are taken from PMC6411751, “Use of machine learning to identify novel, behaviorally active antagonists of the insect odorant receptor co-receptor (Orco) subunit” (Scientific Reports, 2019).
